Columns and labels:
pre-miR-21 BP RNA = experiment: In vitro Dicer processing of pre-miR-21 BP; assay type: biochemical
Text: In vitro Dicer processing. […] Cleavage products were resolved on a denaturing 15% polyacrylamide gel, which was imaged using a Molecular Dynamics Typhoon phosphorimager and quantified with Bio-Rad's QuantityOne software, normalizing to full length RNA.

[1] = tested on: proteome of MDA-MB-231 cells; experiment: Global proteomics profiling (LC-MS/MS) of MDA-MB-231 cells; assay type: cell-based, human; conditions: 50 nM, versus all proteins
Procedure: Global proteomics profiling using LC-MS/MS. The MDA-MB-231 cells treated with vehicle (DMSO) or 5 (50 nM) were washed with PBS, harvested by scraping, centrifuged at 1500×g for five minutes at 4° C. and then resuspended in PBS. Cells were lysed by sonication and lysate protein concentrations were determined using a Bradford assay (Bio-Rad). Protein samples (40 μg) were denatured with 6 M urea in 50 mM NH4HCO3, reduced with 10 mM tris(2-carboxyethyl)phosphine hydrochloride (TCEP) for 30 minutes, and then alkylated with 25 mM iodoacetamide for 30 minutes in the dark. Samples were diluted to 2 M urea with 50 mM NH4HCO3, and digested with trypsin (2 μL of 0.5 μg/μL) in the presence of 1 mM CaCl2) for 12 hours at 37° C. […] Samples were analyzed by LC-MS/MS (see below) and the MS data was processed with MaxQuant and Proteome Discoverer (see below).
LC-MS/MS analysis: Peptides were resuspended in water with 0.1% formic acid (FA) and analyzed using an EASY-nLC 1200 nano-UHPLC coupled to Q Exactive HF-X Quadrupole-Orbitrap mass spectrometer (Thermo Scientific). […]
MaxQuant analysis: The MS data was analyzed with MaxQuant (V1.6.1.0)^27 and searched against the human proteome (Uniprot) and a common list of contaminants (included in MaxQuant). […] The minimum peptide length was set to 6 amino acids and peptide re-quantification and label-free quantification (MaxLFQ) were enabled. […]

Row | Structure (SMILES) | protection from Dicer processing (pre-miR-21 BP RNA) | median log fold-change of predicted downstream protein targets of miR-21 [1]
1 | CCCN(CC(=O)N(CCC)CC(=O)N(CCC)CC(=O)N(CC(N)=O)Cc1cn(CCCNC(=O)CCCOc2ccc(-c3nc4cc(-c5ccc(N6CCN(C)CC6)cc5)ccc4[nH]3)cc2)nn1)C(=O)CNCc1cn(CCCNC(=O)CCCOc2ccc(-c3nc4cc(-c5ccc(N6CCN(C)CC6)cc5)ccc4[nH]3)cc2)nn1 [Compound 2] | Protection with compound is observed at U26 and U27 | –
2 | CCCN(CC(=O)N(CCC)CC(=O)N(CCC)CC(=O)N(CC(=O)NCCOCCOCCOCCOc1ccc(C=C2SC(Nc3ccccc3)=C(C(=O)OCC)C2=O)cc1O)Cc1cn(CCCNC(=O)CCCOc2ccc(-c3nc4cc(-c5ccc(N6CCN(C)CC6)cc5)ccc4[nH]3)cc2)nn1)C(=O)CN(Cc1cn(CCCNC(=O)CCCOc2ccc(-c3nc4cc(-c5ccc(N6CCN(C)CC6)cc5)ccc4[nH]3)cc2)nn1)C(C)=O [Compound 5] | – | significantly upregulated relative to all proteins
